# According to patent US20080200405A1, “Drug Resistance Reversal In Neoplastic Disease” (priority 2007, published 2008):
# Experiments:
# [1] = test system: Human whole blood clot formation; details: compound 4 at 1 ug and 10 ug
# [2] = Ocular permeability and retina levels after topical administration; assay type: in vivo
# [3] = test system: H2O2-induced angiogenesis in the CAM model; test: H2O2-induced angiogenesis in the CAM model; assay type: in vivo, chicken; details: for % Inhibition ± SD / Branch pts ± SEM: H2O2 88 μM, 30 ng
# Experimental: (§1) In vivo neovascularization was examined by the method previously described by Auerbach et al. (J. Dev. Biol. 41:391-394 (1974)). Ten-day old chicken embryos were purchased from Spafas, Inc. (Preston, Conn.) and were incubated at 37° C. with 55% relative humidity. In the dark, with the aid of a candling lamp, a small hole was punctured in the shell concealing the air sac with a hypodermic needle. A second hole was punctured in the shell on the broadside of the egg directly over an […] portion of the embryonic membrane, as observed during candling. An artificial air sac was created beneath the second hole by applying gentle vacuum to the first hole using a small rubber squeeze bulb. The vacuum caused the chorioallantoic membrane (CAM) to separate from the shell.
# (§2) A pro-angiogenic agent was added to induce new blood vessel branches on the CAM of 10-day old embryos. Filter disks of #1 filter paper (Whatman International, United Kingdom) were punched using a small puncher and were soaked in 3 mg/mL cortisone acetate (Sigma, St. Louis, Mo.) in a solution (95% ethanol and water). The disks were subsequently air dried under sterile conditions. The disks were then suspended in PBS (Phosphate Buffered Saline) and placed on growing CAMs. Filters treated with TP-H (TEMPOL-H) or TEMPOL and/or H2O2 or TP-H and/or bFGF or VEGF were placed on the first day of the 3-day incubation.
# (§3) The number of vessel branch points contained in a circular region equal to the area of a filter disk was counted for each section. Percent inhibition data are expressed as the quotient of the experimental value minus the negative control value divided by the difference between the positive control value and the negative control value. One image was counted in each CAM preparation, and findings from eight CAM preparations were analyzed for each treatment condition. In addition, each experiment was performed three times. The resulting angiogenesis index is the mean ±SEM (Standard Error of Measurement) of new branch points in each set of treatment. Statistical analysis of blood vessel branching patterns are performed by 1-way analysis of variance (ANOVA) comparing experimental with corresponding control groups. Statistical significance differences are assessed at P value of <0.05.
# TP-H (TEMPOL-H, the hydroxylamine reduced form of the nitroxide 4-hydroxy-2,2,6,6-tetramethylpiperidin-1-yloxy) or TEMPOL (4-hydroxy-2,2,6,6-tetramethylpiperidine-N-oxyl radical) was applied to the CAM model study to determine its respective anti-angiogenesis effects according to the materials and methods provided in Example 1. H2O2 was used to induce angiogensis in the CAM model.
# [4] = test system: VEGF-induced angiogenesis in the CAM model; test: VEGF-induced angiogenesis in the CAM model; assay type: in vivo, chicken; details: for Mean % Inhibition ± SD / Mean Branch points ± SD: VEGF 2 μg/ml
# Experimental: as §1, §2, §3
# TP-H was applied to the CAM model study to determine its respective anti-angiogenesis effects according to the materials and methods described above. VEGF was used to induce angiogenesis in the CAM model.
# [5] = In vitro stability in rat, rabbit, dog, and human plasma (overall statement); assay type: in vitro ADME; details: 240 minute incubation in plasma
# Experimental: The active metabolite of OT-551 (Cyclopropanecarboxylic acid 1-hydroxy-2,2,6,6-tetramethyl-piperidin-4-yl ester) is TP-H. The objective of this analysis was to determine the in vitro half-life of OT-551 in rat, rabbit, dog, and human plasma under standardized incubation conditions.
# OT-551 was incubated with pooled rat, rabbit, dog, and human plasma for various times under standardized incubation conditions. Pre-labeled tubes containing pooled plasma from rats, rabbits, dogs, and humans were pre-incubated in a shaking 37° C. water bath. A OT-551 solution was added to the tubes at a final concentration of 1000 ng/mL. Time zero samples (n=5) were immediately removed and transferred into tubes containing a stabilizer solution (DTPA, acetylcysteine and ascorbic acid), the LC/MS/MS assay internal standard and methanol. […] The tubes were vortexed, placed on ice, followed by centrifugation. One hundred-μL aliquots of the supernatant were transferred into HPLC sample vials. Additional tubes (n=5 at each time point) were incubated for 5, 10, 20, 30, 60, 120, and 240 minutes at 37° C. and thereafter processed. The amount of OT-551 and TP-H in each incubated sample was quantified using validated LC/MS/MS assays.
# [6] = test system: selenite induced cataract; test: Selenite induced cataract in mice; details: mouse, in vivo
# Description: In addition, as mentioned above, there is no precedent for the prevention of growth factor-induced angiogenesis by either TEMPOL or hydroxylamines.
# mouse V79 cells = details: cited from earlier work
structure (smiles),measurement,setting,value
"CC1(C)CC(OC(=O)C2CC2)CC(C)(C)N1O.Cl [OT-551, 1-hydroxy-4-cyclopropanecarbonyloxy-2,2,6,6-tetramethylpiperidine hydrochloride]",effect on clot formation with Bevacizumab/Ranibizumab,[1],completely abrogated the clot formation
same,levels in the retina,[2]; after topical administration,good levels in the retina
same,permeability through the cornea,[2]; in vivo,good permeability through the cornea
CC1(C)CC(O)CC(C)(C)N1O [TEMPOL-H],% Inhibition ± SD,[3]; 100 μg,28.0 ± 13.6 %
same,Branch pts ± SEM,[3]; 100 μg,155 ± 14.4
same,% Inhibition ± SD,[3]; 200 μg,32.9 ± 8.4 %
same,Branch pts ± SEM,[3]; 200 μg,151.3 ± 15.3
same,% Inhibition ± SD,[3]; 400 μg,44.7 ± 6.6 %
same,Branch pts ± SEM,[3]; 400 μg,137.2 ± 6.9
same,% Inhibition ± SD,[3]; 800 μg,55.7 ± 7.2 %
same,Branch pts ± SEM,[3]; 800 μg,127.3 ± 6.4
same,inhibition of angiogenesis induced by super-maximal concentrations of H2O2,[3]; in vivo,effectively inhibited
same,Mean % Inhibition ± SD,[4]; 100 μg,37.6 ± 6.9 %
same,Mean Branch points ± SD,[4]; 100 μg,154.8 ± 7.5
same,Mean % Inhibition ± SD,[4]; 200 μg,42 ± 3.5 %
same,Mean Branch points ± SD,[4]; 200 μg,150 ± 3.8
same,Mean % Inhibition ± SD,[4]; 400 μg,53.3 ± 3.3 %
same,Mean Branch points ± SD,[4]; 400 μg,137.8 ± 3.0
same,Mean % Inhibition ± SD,[4]; 800 μg,70.7 ± 9.1 %
same,Mean Branch points ± SD,[4]; 800 μg,118.8 ± 9.9
same,inhibition of VEGF-induced angiogenesis,[4]; in vivo,dose-dependent inhibition
same,stability of TP-H during the incubation period,[5],stable during the 240 minute incubation period
same,prevention of selenite induced cataract,[6],effective
same,radioprotection of mouse V79 cells,mouse V79 cells,did not provide any radioprotection
